Source: PubChem BioAssay (NCI)
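All cell lines were grown in 96-well plates and treated with compound for 48 hours. TGI denotes the concentration required for complete inhibition of growth.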

test system: 786-0 renal; assay: NCI-60 cell line screen, 48 h

SMILES	TGI [µM]
CN1CCN(CCCNN)CC1	> 100
CC(C)(C)[Si](C)(C)OC1(CCc2ccccc2OS(=O)(=O)C(F)(F)F)CCCC=C1COCc1ccccc1 (stereo not given)	> 100
C=CCOC1=C(OC(C)=O)C(=O)OC1C1COC(C)(C)O1 (stereo not given)	> 60.7
Clc1ccc(-c2nc3ccc(Cl)cc3[nH]2)cc1	> 100
O=C(Nc1ccn(C2CCC(CO)O2)c(=O)n1)c1ccccc1 (stereo not given)	> 100

test system: A498 renal; assay: NCI-60 cell line screen, 48 h

SMILES	TGI [µM]
CN1CCN(CCCNN)CC1	> 100
CC(C)(C)[Si](C)(C)OC1(CCc2ccccc2OS(=O)(=O)C(F)(F)F)CCCC=C1COCc1ccccc1 (stereo not given)	> 100
C=CCOC1=C(OC(C)=O)C(=O)OC1C1COC(C)(C)O1 (stereo not given)	> 100
O=C(Nc1ccn(C2CCC(CO)O2)c(=O)n1)c1ccccc1 (stereo not given)	> 100

test system: A549 NSCLC; assay: NCI-60 cell line screen, 48 h

SMILES	TGI [µM]
CN1CCN(CCCNN)CC1	> 100
CC(C)(C)[Si](C)(C)OC1(CCc2ccccc2OS(=O)(=O)C(F)(F)F)CCCC=C1COCc1ccccc1 (stereo not given)	> 100
C=CCOC1=C(OC(C)=O)C(=O)OC1C1COC(C)(C)O1 (stereo not given)	> 100
Clc1ccc(-c2nc3ccc(Cl)cc3[nH]2)cc1	> 100
O=C(Nc1ccn(C2CCC(CO)O2)c(=O)n1)c1ccccc1 (stereo not given)	> 100

test system: ACHN renal; assay: NCI-60 cell line screen, 48 h

SMILES	TGI [µM]
CN1CCN(CCCNN)CC1	> 100
CC(C)(C)[Si](C)(C)OC1(CCc2ccccc2OS(=O)(=O)C(F)(F)F)CCCC=C1COCc1ccccc1 (stereo not given)	> 50.9
C=CCOC1=C(OC(C)=O)C(=O)OC1C1COC(C)(C)O1 (stereo not given)	46.6
Clc1ccc(-c2nc3ccc(Cl)cc3[nH]2)cc1	> 100
O=C(Nc1ccn(C2CCC(CO)O2)c(=O)n1)c1ccccc1 (stereo not given)	> 100

test system: BT-549 breast; assay: NCI-60 cell line screen, 48 h

SMILES	TGI [µM]
CN1CCN(CCCNN)CC1	> 100
CC(C)(C)[Si](C)(C)OC1(CCc2ccccc2OS(=O)(=O)C(F)(F)F)CCCC=C1COCc1ccccc1 (stereo not given)	> 100
C=CCOC1=C(OC(C)=O)C(=O)OC1C1COC(C)(C)O1 (stereo not given)	> 88.2
Clc1ccc(-c2nc3ccc(Cl)cc3[nH]2)cc1	> 100
O=C(Nc1ccn(C2CCC(CO)O2)c(=O)n1)c1ccccc1 (stereo not given)	> 100

test system: CAKI-1 renal; assay: NCI-60 cell line screen, 48 h

SMILES	TGI [µM]
CN1CCN(CCCNN)CC1	> 100
CC(C)(C)[Si](C)(C)OC1(CCc2ccccc2OS(=O)(=O)C(F)(F)F)CCCC=C1COCc1ccccc1 (stereo not given)	> 100
C=CCOC1=C(OC(C)=O)C(=O)OC1C1COC(C)(C)O1 (stereo not given)	> 57.1
Clc1ccc(-c2nc3ccc(Cl)cc3[nH]2)cc1	> 100
O=C(Nc1ccn(C2CCC(CO)O2)c(=O)n1)c1ccccc1 (stereo not given)	> 100

test system: CCRF-CEM leukemia; assay: NCI-60 cell line screen, 48 h

SMILES	TGI [µM]
CC(C)(C)[Si](C)(C)OC1(CCc2ccccc2OS(=O)(=O)C(F)(F)F)CCCC=C1COCc1ccccc1 (stereo not given)	> 76.4
C=CCOC1=C(OC(C)=O)C(=O)OC1C1COC(C)(C)O1 (stereo not given)	> 60.4
Clc1ccc(-c2nc3ccc(Cl)cc3[nH]2)cc1	> 100
O=C(Nc1ccn(C2CCC(CO)O2)c(=O)n1)c1ccccc1 (stereo not given)	> 100

test system: COLO 205 colon; assay: NCI-60 cell line screen, 48 h

SMILES	TGI [µM]
CN1CCN(CCCNN)CC1	> 100
CC(C)(C)[Si](C)(C)OC1(CCc2ccccc2OS(=O)(=O)C(F)(F)F)CCCC=C1COCc1ccccc1 (stereo not given)	> 100
C=CCOC1=C(OC(C)=O)C(=O)OC1C1COC(C)(C)O1 (stereo not given)	> 58.9
Clc1ccc(-c2nc3ccc(Cl)cc3[nH]2)cc1	34.9
O=C(Nc1ccn(C2CCC(CO)O2)c(=O)n1)c1ccccc1 (stereo not given)	> 100

test system: DU-145 prostate; assay: NCI-60 cell line screen, 48 h

SMILES	TGI [µM]
CN1CCN(CCCNN)CC1	> 100
CC(C)(C)[Si](C)(C)OC1(CCc2ccccc2OS(=O)(=O)C(F)(F)F)CCCC=C1COCc1ccccc1 (stereo not given)	> 100
C=CCOC1=C(OC(C)=O)C(=O)OC1C1COC(C)(C)O1 (stereo not given)	> 100
Clc1ccc(-c2nc3ccc(Cl)cc3[nH]2)cc1	> 100
O=C(Nc1ccn(C2CCC(CO)O2)c(=O)n1)c1ccccc1 (stereo not given)	> 100

test system: EKVX NSCLC; assay: NCI-60 cell line screen, 48 h

SMILES	TGI [µM]
CN1CCN(CCCNN)CC1	> 100
CC(C)(C)[Si](C)(C)OC1(CCc2ccccc2OS(=O)(=O)C(F)(F)F)CCCC=C1COCc1ccccc1 (stereo not given)	> 100
C=CCOC1=C(OC(C)=O)C(=O)OC1C1COC(C)(C)O1 (stereo not given)	> 68
Clc1ccc(-c2nc3ccc(Cl)cc3[nH]2)cc1	> 100
O=C(Nc1ccn(C2CCC(CO)O2)c(=O)n1)c1ccccc1 (stereo not given)	> 100

test system: HCC-2998 colon; assay: NCI-60 cell line screen, 48 h

SMILES	TGI [µM]
CN1CCN(CCCNN)CC1	> 100
CC(C)(C)[Si](C)(C)OC1(CCc2ccccc2OS(=O)(=O)C(F)(F)F)CCCC=C1COCc1ccccc1 (stereo not given)	> 100
C=CCOC1=C(OC(C)=O)C(=O)OC1C1COC(C)(C)O1 (stereo not given)	> 100
Clc1ccc(-c2nc3ccc(Cl)cc3[nH]2)cc1	89.1
O=C(Nc1ccn(C2CCC(CO)O2)c(=O)n1)c1ccccc1 (stereo not given)	> 100

test system: HCT-116 colon; assay: NCI-60 cell line screen, 48 h

SMILES	TGI [µM]
CN1CCN(CCCNN)CC1	> 100
CC(C)(C)[Si](C)(C)OC1(CCc2ccccc2OS(=O)(=O)C(F)(F)F)CCCC=C1COCc1ccccc1 (stereo not given)	> 100
C=CCOC1=C(OC(C)=O)C(=O)OC1C1COC(C)(C)O1 (stereo not given)	> 65.2
Clc1ccc(-c2nc3ccc(Cl)cc3[nH]2)cc1	53.3
O=C(Nc1ccn(C2CCC(CO)O2)c(=O)n1)c1ccccc1 (stereo not given)	> 100

test system: HCT-15 colon; assay: NCI-60 cell line screen, 48 h

SMILES	TGI [µM]
CN1CCN(CCCNN)CC1	> 100
CC(C)(C)[Si](C)(C)OC1(CCc2ccccc2OS(=O)(=O)C(F)(F)F)CCCC=C1COCc1ccccc1 (stereo not given)	> 100
C=CCOC1=C(OC(C)=O)C(=O)OC1C1COC(C)(C)O1 (stereo not given)	46.2
Clc1ccc(-c2nc3ccc(Cl)cc3[nH]2)cc1	> 100
O=C(Nc1ccn(C2CCC(CO)O2)c(=O)n1)c1ccccc1 (stereo not given)	> 100

test system: HL-60(TB) leukemia; assay: NCI-60 cell line screen, 48 h

SMILES	TGI [µM]
CN1CCN(CCCNN)CC1	> 100
CC(C)(C)[Si](C)(C)OC1(CCc2ccccc2OS(=O)(=O)C(F)(F)F)CCCC=C1COCc1ccccc1 (stereo not given)	> 55.3
C=CCOC1=C(OC(C)=O)C(=O)OC1C1COC(C)(C)O1 (stereo not given)	> 60.8
Clc1ccc(-c2nc3ccc(Cl)cc3[nH]2)cc1	> 100
O=C(Nc1ccn(C2CCC(CO)O2)c(=O)n1)c1ccccc1 (stereo not given)	> 100

test system: HOP-62 NSCLC; assay: NCI-60 cell line screen, 48 h

SMILES	TGI [µM]
CN1CCN(CCCNN)CC1	> 100
CC(C)(C)[Si](C)(C)OC1(CCc2ccccc2OS(=O)(=O)C(F)(F)F)CCCC=C1COCc1ccccc1 (stereo not given)	> 100
